Source: PubChem BioAssay AID743394 (Broad Institute, 2014)
The source made the active and inactive calls.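 Rule for the calls: active = 40% activation versus positive control reached by fitted dose-response curve at or below highest valid tested dose; inconclusive = poor fit quality, or flat fit with activation between 30% and 70%; inactive = the rest.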

tested on: not listed separately; experiment: inactive X chromosome reactivation in XiGFP fibroblasts, dose response, imaging, 68-5-11 mouse fibroblasts, GFP, cherry-pick (AID 743394); details: 68-5-11 mouse fibroblast XiGFP reporter, % GFP-positive imaging, 3 d; at 19.5 µM (top of the series);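 note: sensitizer 5-aza-dC present in the wells at 0.5 mM final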

Row | Structure (SMILES) | activation
1 | Cc1cc(=O)oc2cc3c(cc12)CCCN3 | 0.76% (inactive)

same assay, conditions: 68-5-11 mouse fibroblast XiGFP reporter, % GFP-positive imaging, 3 d; at 19.5 µM (top of the series); cells co-treated with 5-aza-dC sensitizer; scaled: neutral wells 0, ellipticine wells 100

Row | Structure (SMILES) | activation
2 | Cc1ccc(C)c(CSC2=NN3CCCC(=O)N=C3S2)c1 | -0.017% (inactive)
3 | Cc1c(Nc2cc(Cl)c3nonc3c2[N+](=O)[O-])c(=O)n(-c2ccccc2)n1C | -0.121% (inactive)
4 | CC(C)(C)N(Cc1ccccc1)C(=O)COC(=O)c1ccc(N2CCCC2=O)cc1 | 0.165% (inactive)
5 | C=Cc1cnc([N+](=O)[O-])n1C | -0.018% (inactive)
6 | COc1cccc(CNC(=O)c2ccc(NC(=O)CC3SC(N4CCCC4)=NC3=O)cc2)c1 (configuration not stated) | 0.01% (inactive)
7 | Cc1nnc(SCc2cc(=O)oc3ccc4ccccc4c23)n1Cc1ccccc1 | -0.027% (inactive)
8 | C[C@H](CO)N1C[C@H](C)[C@H](CN(C)C(=O)Nc2ccc(F)cc2)Oc2ncc(C#Cc3cccc(F)c3)cc2C1=O | -0.031% (inactive)
9 | COc1ccc(-c2ccc3[nH]c4c(c3c2)CCN2C(=O)[C@@H]([C@H](C)O)[C@@H](N(C)C(=O)Nc3ccc(F)cc3)C[C@@H]42)cc1 | 1.96% (inactive)
10 | Oc1c(C(c2ccccc2Cl)N2CCCC2)ccc2cccnc12 (configuration not stated) | -0.035% (inactive)
11 | COc1ccc(Cc2c(O)nc(SCC(=O)NC34CC5CC(CC(C5)C3)C4)[nH]c2=O)cc1 | 0.41% (inactive)
12 | COc1ccc(N(CC(=O)Nc2nccs2)S(=O)(=O)c2c(C)[nH]c(=O)[nH]c2=O)cc1 | 0.033% (inactive)
13 | Nc1ccc(-c2nc3ccccc3[nH]2)cc1 | -0.039% (inactive)

same assay, conditions: 68-5-11 mouse fibroblast XiGFP reporter, % GFP-positive imaging, 3 d; at 21 µM (top of the series); cells co-treated with 5-aza-dC sensitizer; scaled: neutral wells 0, ellipticine wells 100

Row | Structure (SMILES) | activation
14 | CO[C@H](CN(C)C(=O)Nc1ccc(C(F)(F)F)cc1)[C@@H](C)CN(Cc1ccccc1Cl)[C@@H](C)CO | 0% (inactive)

tested on: 68-5-11 mouse fibroblast XiGFP reporter, % GFP-positive imaging, 3 d; experiment: as above; details: cells co-treated with 5-aza-dC sensitizer

Row | Structure (SMILES) | AC40
15 | Cc1ccc(C(=O)c2oc3ccccc3c2NC(=O)c2cc(-c3ccccc3O)n[nH]2)cc1 | 12.8 µM
16 | COc1cc(N2CCCC2)c(OC)cc1/C=C1/NC(=S)NC1=O | > 19.5 µM (inactive)
17 | O=[N+]([O-])c1ccc(C2=NN(c3ccccc3)C(c3ccco3)C2)cc1 (configuration not stated) | 2.25 µM
18 | CCCCN(C)C1=CC2=CC(=C(C#N)C#N)CCC2CC1 (configuration not stated) | 2.86 µM
19 | N#C/C(=C\c1ccc([N+](=O)[O-])o1)c1nc2ccccc2[nH]1 | 1.26 µM
20 | O=C(NCc1ccccc1)c1cccc2c1C(=O)c1ccc(/C=C/c3ccccc3)cc1S2(=O)=O | 8.5 µM
21 | CCOC(=O)Cn1c(=O)c(-c2cc(Br)ccc2N)nc2ccccc21 | 12.5 µM
22 | Nc1c(C(=O)c2ccccc2)sc2nsc(SCCN3CCCC3)c12 | 8.3 µM
23 | COc1cc2c3nnc(-c4ccc(F)cc4)c-3cn(Cc3cccc(C)c3)c2cc1OC | 3.74 µM
24 | C/C(=N\Nc1ncnc2sc(C)c(C)c12)c1ccccn1 | 0.784 µM
25 | COc1ccc(C(=O)c2sc3nc(C)cc(-c4cccs4)c3c2N)cc1OC | > 19.5 µM (inactive)
26 | Cc1cccc(NC(=O)/C=C/c2ccc([N+](=O)[O-])s2)c1 | 1.58 µM
27 | CCN1/C(=C/c2ccc3cc(C)cc(C)c3[n+]2CC)Sc2cc(C)ccc21 | 0.507 µM
28 | N=c1ccn2c(n1)OC1C(O)C(CO)OC12 (configuration not stated) | 19.1 µM
29 | COc1ccc2c(n1)Sc1nc3ccccc3nc1N2 | 13.1 µM
30 | c1ccc(-c2cnn3c(-c4ccccc4)c(-c4ccccc4)nc3n2)cc1 | 1.8 µM
31 | Cc1cccc(-c2cccc3[nH]c4c(c23)CCN2C(=O)[C@H]3[C@H](C)ON(C)[C@H]3C[C@@H]42)c1 | 10.8 µM
32 | N#Cc1c(-c2ccccc2F)cc(C2CC2)nc1SCC(=O)c1cccs1 | 7.48 µM
33 | N#C/C(=C\c1ccc(N2CCCCC2)o1)C(=O)Nc1cccc(Br)c1 | 0.406 µM
34 | C[C@H]1CCCCO[C@H](CN(C)S(=O)(=O)c2ccc(Cl)cc2)[C@@H](C)CN([C@@H](C)CO)C(=O)c2cc(NC(=O)Nc3ccccc3)ccc2O1 | > 19.5 µM (inactive)

Row | Structure (SMILES) | AC40
35 | COC(=O)C1=C(C)NC(C)=C(C(=O)OC)C1C(=O)OCC(=O)c1ccc(F)cc1 | 15.3 µM
36 | Cc1cccc2cc3c(N)c(C(=O)N4CCc5ccccc54)sc3nc12 | 14.1 µM
37 | COc1cc2c3nnc(-c4ccccc4)c-3cn(Cc3ccccc3F)c2cc1OC | 1.27 µM
38 | CC(C)N1CCc2c(sc(NC(=O)c3ccc4ccccc4c3)c2C(N)=O)C1 | 13.3 µM
39 | Cc1ccc(S(=O)(=O)N2CC3(O)CN(C(=O)OC(C)C)N(C(=O)OC(C)C)CC3(OC(=O)NCc3ccccc3)C2)cc1 (configuration not stated) | 13.8 µM
40 | Cc1nnc(N2C(=O)c3cccc4c([N+](=O)[O-])ccc(c34)C2=O)s1 | > 19.5 µM (inactive)
41 | Cc1ccc(C(=O)N/C(=C/c2ccc(-c3ccc([N+](=O)[O-])cc3)o2)C(=O)NCCCN(C)C)cc1 | 4.28 µM
42 | Cc1[nH]c2ccccc2c1/C=N/Nc1ccc([N+](=O)[O-])cc1 | 9.23 µM
43 | O=[N+]([O-])c1ccc(N/N=C/c2sc(N3CCOCC3)nc2-c2ccccc2)c(S(=O)(=O)Nc2ccc(Cl)cc2)c1 | 1.72 µM
44 | CN1CCc2c(sc(NC(=O)c3ccc(S(=O)(=O)N4CCc5ccccc54)cc3)c2C(N)=O)C1 | 8.93 µM
45 | CC(=O)Nc1cc2c3c(cccc3c1)-c1ccccc1-2 | 2.56 µM
46 | CC[n+]1c(/C=C/C=C/N(C(C)=O)c2ccccc2)sc2cc(OC)ccc21 | 1.16 µM
47 | CN1/C(=C/C=C(C#N)C#N)C(C)(C)c2ccccc21 | 11.3 µM
48 | COC1=CC(=O)c2c(ccc3ncnc(N)c23)C1=O | 9.69 µM
49 | COc1cc(NS(=O)(=O)c2ccc3ccccc3c2)c2ncccc2c1 | > 19.5 µM (inactive)
50 | Nc1c(Br)cc2c3c(cccc13)-c1ccccc1-2 | 12.6 µM
51 | CC(C)CCN1CCN(Cc2cc3ccccc3[nH]2)CC1CCO (configuration not stated) | 16.4 µM
52 | COc1ccc2nc(C)cc(NCc3ccc(F)cc3)c2c1 | 4.9 µM
53 | O=[N+]([O-])c1ccc(/C=N/NC(=S)Nc2ccc(Cl)cc2Cl)s1 | > 19.5 µM (inactive)
54 | CCN1/C(=C\c2ccc3ccccc3[n+]2CC)Sc2cc(C)ccc21 | 0.668 µM

Row | Structure (SMILES) | AC40
55 | Nc1c(C(=O)Nc2ccc(S(=O)(=O)N3CCCC3)cc2)sc2nc3cc4c(cc3cc12)CCC4 | 4.29 µM
56 | O=S(=O)(Nc1cc2nc3ccccc3nc2n1Cc1ccccc1)c1ccc(Cl)cc1 | > 19.5 µM (inactive)
57 | CCN1CCc2c(sc(NC(=O)Nc3ccc(Cl)c(Cl)c3)c2C(N)=O)C1 | 0.196 µM
58 | Cc1ccccc1OCC(O)CNC1CCC(NCC(O)COc2ccccc2C)CC1 (configuration not stated) | > 19.5 µM (inactive)
59 | CC(=NNc1nc2ccccc2o1)c1cc2ccccc2cn1 | 2.86 µM
60 | COc1cc2c3nnc(-c4ccc(F)cc4)c-3cn(Cc3ccccc3)c2cc1OC | 1.23 µM
61 | Cc1cc(N/N=C/c2ccc([N+](=O)[O-])o2)nc2ccccc12 | 8.4 µM
62 | Cc1cc(C)cc(NC(=O)/C=C/c2ccc([N+](=O)[O-])s2)c1 | 1.7 µM
63 | Cc1ccc(NC(=O)/C=C/c2ccc([N+](=O)[O-])s2)c(C)c1 | 1.68 µM
64 | CN(C)CCCN1C(=O)c2cccc3c([N+](=O)[O-])ccc(c23)C1=O | 6.06 µM
65 | CCCCNc1ccc2c3c(cccc13)C(=O)N(CCCC)C2=O | 0.927 µM
66 | Nc1[nH]c2cc([N+](=O)[O-])ccc2c1-c1ccccn1 | 4.61 µM
67 | F[B-](F)(F)c1cnc2ccccc2c1 | > 6.8 µM (inactive)
68 | Cn1cc(C2=C(c3ccc(Cl)cc3Cl)C(=O)NC2=O)c2ccccc21 | 6.16 µM
69 | CC(C)CCN1C(=O)c2cccc3c(N)ccc(c23)C1=O | 7.46 µM
70 | C#Cc1cc(N2CCN(C(=O)c3ccoc3)CC2)n2nc(-c3cccc(Cl)c3)cc2n1 | 8.99 µM
71 | CCOC(=O)Cn1c(=NC(=O)c2ccc([N+](=O)[O-])s2)sc2ccccc21 | 7.3 µM
72 | COc1cc(/C=C/C(=O)c2ccc([N+](=O)[O-])o2)ccc1O | 10.3 µM
